Experimental data as given in doi:10.1101/2024.06.17.599194v1 (biorxiv, 2024).

T1: E. coli IspE (EcIspE) (Escherichia coli, UniProt P62615)
T1 sequence (P62615 1-283): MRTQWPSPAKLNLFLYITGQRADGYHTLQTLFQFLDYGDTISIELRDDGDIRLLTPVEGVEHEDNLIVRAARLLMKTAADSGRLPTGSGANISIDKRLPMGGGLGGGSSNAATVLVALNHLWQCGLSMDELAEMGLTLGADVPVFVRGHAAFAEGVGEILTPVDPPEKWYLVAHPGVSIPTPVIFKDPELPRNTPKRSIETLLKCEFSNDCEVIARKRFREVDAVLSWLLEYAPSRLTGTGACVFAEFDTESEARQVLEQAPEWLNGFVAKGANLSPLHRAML

T2: A. baumannii IspE (AbIspE) (Acinetobacter baumannii, UniProt B2HUM5)
T2 sequence (B2HUM5 1-277): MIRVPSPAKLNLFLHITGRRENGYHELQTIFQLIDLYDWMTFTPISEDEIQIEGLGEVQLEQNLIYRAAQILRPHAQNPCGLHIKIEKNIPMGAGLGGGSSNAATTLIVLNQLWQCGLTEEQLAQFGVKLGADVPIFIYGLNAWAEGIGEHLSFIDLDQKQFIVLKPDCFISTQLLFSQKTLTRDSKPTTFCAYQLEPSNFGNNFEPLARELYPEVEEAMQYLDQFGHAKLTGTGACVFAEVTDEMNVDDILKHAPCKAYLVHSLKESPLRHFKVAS

T3: K. pneumoniae IspE (KpIspE) (Klebsiella pneumoniae, UniProt A6TAP2)
T3 sequence (A6TAP2 1-283): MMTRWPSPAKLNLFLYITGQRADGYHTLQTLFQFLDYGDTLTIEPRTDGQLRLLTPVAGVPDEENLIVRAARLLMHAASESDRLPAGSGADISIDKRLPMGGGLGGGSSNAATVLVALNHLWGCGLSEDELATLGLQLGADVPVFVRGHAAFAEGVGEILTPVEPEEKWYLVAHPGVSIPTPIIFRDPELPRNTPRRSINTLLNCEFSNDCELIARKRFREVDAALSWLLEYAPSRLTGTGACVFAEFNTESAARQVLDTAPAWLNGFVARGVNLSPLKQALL

B1: A. baumannii IspE (AbIspE) (Acinetobacter baumannii ACICU) (protein)
chain: MIRVPSPAKLNLFLHITGRRENGYHELQTIFQLIDLYDWMTFTPISEDEIQIEGLGEVQLEQNLIYRAAQILRPHAQNPCGLHIKIEKNIPMGAGLGGGSSNAATTLIVLNQLWQCGLTEEQLAQFGVKLGADVPIFIYGLNAWAEGIGEHLSFIDLDQKQFIVLKPDCFISTQLLFSQKTLTRDSKPTTFCAYQLEPSNFGNNFEPLARELYPEVEEAMQYLDQFGHAKLTGTGACVFAEVTDEMNVDDILKHAPCKAYLVHSLKESPLRHFKVAS
B2: K. pneumoniae IspE (KpIspE) (Klebsiella pneumoniae subsp. pneumoniae MGH 78578) (protein)
chain: MMTRWPSPAKLNLFLYITGQRADGYHTLQTLFQFLDYGDTLTIEPRTDGQLRLLTPVAGVPDEENLIVRAARLLMHAASESDRLPAGSGADISIDKRLPMGGGLGGGSSNAATVLVALNHLWGCGLSEDELATLGLQLGADVPVFVRGHAAFAEGVGEILTPVEPEEKWYLVAHPGVSIPTPIIFRDPELPRNTPRRSINTLLNCEFSNDCELIARKRFREVDAALSWLLEYAPSRLTGTGACVFAEFNTESAARQVLDTAPAWLNGFVARGVNLSPLKQALL
B3: E. coli IspE (EcIspE) (Escherichia coli K-12) (protein)
chain: MRTQWPSPAKLNLFLYITGQRADGYHTLQTLFQFLDYGDTISIELRDDGDIRLLTPVEGVEHEDNLIVRAARLLMKTAADSGRLPTGSGANISIDKRLPMGGGLGGGSSNAATVLVALNHLWQCGLSMDELAEMGLTLGADVPVFVRGHAAFAEGVGEILTPVDPPEKWYLVAHPGVSIPTPVIFKDPELPRNTPKRSIETLLKCEFSNDCEVIARKRFREVDAVLSWLLEYAPSRLTGTGACVFAEFDTESEARQVLEQAPEWLNGFVAKGANLSPLHRAML

Tests used:
E. coli IspE (EcIspE) = target: T1, E. coli IspE (EcIspE); experiment: coupled spectrophotometric assay, dose-response; assay type: biochemical
[1] = target: T2, A. baumannii IspE (AbIspE); experiment: coupled spectrophotometric assay, dose-response; assay type: biochemical
[2] = target: T3, K. pneumoniae IspE (KpIspE); experiment: coupled spectrophotometric assay, dose-response; assay type: biochemical
purified protein [3] = substrate: Nc1ncnc2c1ncn2[C@@H]1O[C@H](COP(=O)(O)OP(=O)(O)OP(=O)(O)O)[C@@H](O)[C@H]1O; experiment: purified protein; conditions: room temperature; CDP-ME 2 mM
purified protein [4] = substrate: C[C@](O)(CO)[C@H](O)COP(=O)(O)OP(=O)(O)OC[C@H]1O[C@@H](n2ccc(N)nc2=O)[C@H](O)[C@@H]1O; experiment: purified protein; conditions: room temperature; ATP 1 mM

Molecule	IC50 (E. coli IspE (EcIspE)) [µM]	IC50 [1] [µM]	IC50 [2] [µM]	Km (purified protein [3]) [µM]	Km (purified protein [4]) [µM]
Nc1nc(=O)n(C2CCCS2)cc1C#CCNS(=O)(=O)C1CC1 (racemic) [compound 1, (±)-1]	13 ± 2.9	20 ± 3	8 ± 1.5		
Nc1nc(=O)[nH]cc1C#CCNS(=O)(=O)C1CC1 [compound 2, 2]	36.5 ± 1.6		44.3 ± 4.9		
Nc1nc(=O)[nH]cc1C#CCNS(=O)(=O)C1CCCC1 [compound 3, 3]	10.3 ± 0.7		11.3 ± 0.6		
Nc1nc(=O)[nH]cc1C#CCNS(=O)(=O)C1CCCCC1 [compound 4, 4]	6.2 ± 3.19		5.2 ± 1.3		
B1				474	358
B2				348	170
B3				420	200
